Experiments:
[1] = tested on: relapsing multiple sclerosis (RMS) patients; experiment: Brain volume loss in phase 3 RMS studies SUNBEAM and RADIANCE Part B vs interferon beta-1a; type: in vivo, human
Excerpt: As mentioned above, ozanimod is in clinical development for treatment of relapsing multiple sclerosis (RMS). Brain volume loss (BVL) correlates with and predicts disability and is thought to be a marker of long-term disease progression and cognitive impairment. Accordingly, reducing BVL is an important treatment goal. In this example, BVL results are reported from two similarly-designed phase 3 RMS studies.
SUNBEAM (N=1346) and RADIANCE Part B (N=1320) were randomised, double-blind, double-dummy, active-controlled, parallel-group studies of the efficacy (primary outcome annualised relapse rate) and safety of once-daily ozanimod 1 mg or 0.5 mg vs intramuscular interferon beta-1a (IFNβ-1a) 30 μg for ≥12 months (m) (SUNBEAM) or 24 m (RADIANCE). BVL was evaluated using the Jacobian integration method to assess changes in normalised whole brain, cortical grey matter, and thalamic volumes. Rank analysis of covariance was performed with treatment effects reported as percent reductions in median percent BVL from baseline.

[2] = tested on: primary rodent astrocytes; experiment: Primary rodent astrocytes in vitro, resting and LPS-activated; type: cell-based
Experimental: In addition, the effects of ozanimod on the CNS were examined in vivo using the cuprizone-induced mouse model of demyelination and in vitro in primary rodent astrocytes. Efficacy of ozanimod or compound (2-R) was examined in the cuprizone-induced mouse model of neuroprotection. C57BL/6 mice were treated with cuprizone (0.3% weight/weight orally) and rapamycin (10 mg/kg intraperitoneally daily) to demyelinate axons in the brain and concurrently treated with ozanimod (0.1, 0.3, or 1 mg/kg) or compound (2-S) (1 mg/kg) by daily oral gavage to investigate its neuroprotective activity. Neuroprotection was assessed through examination of axonal pathology in the corpus callosum using SMI-32 (antineurofilament H non-phosphorylated mouse monoclonal antibody) staining, functional assessment through kinematic gait analysis and the plasma biomarker neurofilament light chain (NfL). Further, direct activity of ozanimod was examined in resting and activated primary rodent astrocytes in vitro.

[3] = RADIANCE (24 m), 1 mg once daily, p<0.0001
[4] = SUNBEAM (12 m), 1 mg once daily, p<0.0001

## CC(C)Oc1ccc(-c2nc(-c3cccc4c3CC[C@@H]4NCCO)no2)cc1C#N [Ozanimod]
[1]; RADIANCE (24 m), 0.5 mg once daily, p<0.0001
  slowing of cortical grey matter loss with respect to IFN: 55.1%
[1]; RADIANCE (24 m), 0.5 mg once daily, p=0.0001
  slowing of whole BVL vs IFN: 24.5%
[1]; RADIANCE (24 m), 0.5 mg once daily, p=0.0008
  slowing of thalamic BVL vs IFN: 30.1%
[1]; [3]
  slowing of cortical grey matter loss with respect to IFN: 58.3%
  slowing of thalamic BVL vs IFN: 31.9%
  slowing of whole BVL vs IFN: 26.6%
[1]; SUNBEAM (12 m), 0.5 mg once daily, p<0.0001
  slowing of cortical grey matter loss with respect to IFN: 61.4%
[1]; SUNBEAM (12 m), 0.5 mg once daily, p=0.0001
  slowing of thalamic BVL vs IFN: 34.3%
[1]; SUNBEAM (12 m), 0.5 mg once daily, p=0.0615
  slowing of whole BVL vs IFN: 12.3%
[1]; [4]
  slowing of cortical grey matter loss with respect to IFN: 83.8%
  slowing of thalamic BVL vs IFN: 38.5%
  slowing of whole BVL vs IFN: 32.5%
[2]; induced by LPS activation
  release of pro-inflammatory cytokines, including IL-1β, TNFα, IL-6, and KC/GRO: attenuated the release of pro-inflammatory cytokines
[2]; primary rodent astrocytes
  ERK and AKT signaling pathways: directly activated ERK and AKT signaling pathways

— US11207301B2, “Sphingosine 1 phosphate receptor agonists for neuroprotection” (RECEPTOS LLC, priority 2017, dated 2021)
